{
  "source": "patent US7456292B2",
  "about": "“Hydroxamic acid-containing amino acid derivatives” (Bexel Pharmaceuticals, Inc., priority 2005, dated 2008)",
  "key": {"[1]": {"test_system": "Collagen Induced Arthritis Model", "assay": "Collagen induced arthritis model", "assay_type": "in vivo", "details": "male DBA/1 Lac mice, oral 50 mg/kg daily", "description": "Arthritis induced in male DBA/1 Lac mice with bovine collagen (100 μg/mouse). Booster dose was given on Day 21 and started treatment when clinical score was about 2. […] Dexamethasone was kept as positive control. Severity of each paw score was defined from 0=no erythma to 4=severe arthritis for the swollen paws with a maximum possible score of 16 for 4 paws (4×4) in one animal."}, "TNF-α [2]": {"test_system": "TNF-α", "assay": "LPS induced TNF-α in THP-1 monocytic cells", "assay_type": "cell-based", "details": "Homo sapiens, LPS 1 μg/mL 24 hours", "description": "(§1) Human THP-1 monocyte cells were cultured and incubated with compounds at different concentrations. Cells were then challenged with lipopolysaccharides (LPS) at a concentration of (1 μg/mL) for 24 hours. Cell supernatants were then analyzed for the presence of TNF-α cytokines by antibody directed enzyme-linked immunoassay from R & D System, Minneapolis, USA."}, "TNF-α [3]": {"test_system": "TNF-α", "assay": "LPS induced sepsis model in mice, serum TNF-α", "assay_type": "in vivo", "details": "Mus musculus, SW mice, serum after 90 min", "description": "(§2) SW mice were orally treated with vehicle, dexamethasone (5 mg/kg) and compounds at a dose of 50 mg/kg body weight one hour before LPS injection (10 μg/mouse, ip) and blood was collected after 90 min and measured serum TNF-α and IL-6 levels by ELISA."}, "TNF-α [4]": {"test_system": "TNF-α", "assay": "LPS induced TNF-α in hPBMC", "assay_type": "cell-based", "details": "Homo sapiens, read-out: Inhibition (%) TNF-α", "description": "as §1, with “PBMC” for “THP-1”, “TNF-α, IL-6 and IL-1β” for “TNF-α”, “immunoassay. Dexamethasone was used as a positive control in the experiments.” for “immunoassay from R & D System, Minneapolis, USA.”"}, "[5]": {"test_system": "carrageenan induced paw inflammation", "assay": "Carrageenan induced inflammation in rats", "assay_type": "in vivo", "details": "Sprague-Dowley rats, 50 mg/kg oral, paw volume after 2 and 3 hours", "description": "Sprague-Dowley rats with average weight of 250 g (6-7 weeks of age) were randomized in three groups, and given 50 mg/kg oral dose of compound of example 6. Thirty minutes later carrageenan was administered in the sub-planter region of right hind paws. The control group received equal volume of water without any compound. Paw volume was measured after 2 and 3 hours. Dexamethasone at a concentration of 5 mg/kg was used as a positive control in this experiment."}, "Lymphocyte proliferation": {"test_system": "Lymphocyte proliferation", "assay": "MBP induced lymphocyte proliferation (thymidine incorporation)", "assay_type": "cell-based", "details": "MBP stimulated lymph node cells of SJL mice, 72 h", "description": "(§3) FIG. 6: Inhibition of myelin basic protein (MBP) induced […] mice were immunized with 400 μg of myelin basic protein (MBP) in CFA on day 0 and 7 and regional lymph nodes were harvested on day 14 and cultured with MBP in the presence or absence of compound 22 for 72 h. Lymphocyte proliferation was determined by thymidine incorporation assay. Cell culture supernatants from MBP stimulated and compound 22 treated cells were assayed for gamma interferon using ELISA."}, "IL-12 (p40)": {"test_system": "IL-12 (p40)", "assay": "CD40 ligand-mediated synthesis of IL-12 (p40) in mouse peritoneal macrophages", "assay_type": "cell-based", "details": "mouse peritoneal macrophages stimulated with 2 μg/mL soluble CD40 ligand", "description": "To further confirm the inhibition of IL-12 secretion mediated by CD40, induction of IL-12 (p40) was examined following activation of macrophages by soluble CD40 ligand, CD 154. Mouse peritoneal macrophages, were stimulated with 2 μg/mL of soluble […] (Immunex) in the presence of compound 22."}, "gamma interferon": {"test_system": "gamma interferon", "assay": "Myelin basic protein (MBP) induced gamma interferon in lymph node cultures", "assay_type": "cell-based", "details": "MBP stimulated lymph node cells of SJL mice, 72 h, ELISA", "description": "as §3"}, "[6]": {"test_system": "intestinal bowel disease (IBD) induced by dextran sodium sulphate (DSS)", "assay": "DSS induced inflammatory bowel disease in mice", "assay_type": "in vivo", "details": "male SW mice, 4% DSS, daily dose 50 mg/kg body weight in PEG400", "description": "DAI is comprised of factors such as body weight, stool quality and occult blood content. A 4% solution of DSS was provided as drinking water and DAI was monitored twice a week for the induction of disease. Following this the animals were treated with a daily dose 50 mg/kg body weight of compound 22 in PEG400 formulations and the activity index was monitored twice a week."}, "IL-6 [7]": {"test_system": "IL-6", "assay": "LPS induced sepsis model in mice, serum IL-6", "assay_type": "in vivo", "details": "Mus musculus; SW mice, oral 5 mg/kg bw one hour before LPS, serum after 90 min", "description": "as §2"}, "IL-6 [8]": {"test_system": "IL-6", "assay": "LPS induced IL-6 in hPBMC", "assay_type": "cell-based", "details": "Homo sapiens, LPS 1 μg/mL 24 hours", "description": "as §1, with “PBMC” for “THP-1”, “TNF-α, IL-6 and IL-1β” for “TNF-α”, “immunoassay. Dexamethasone was used as a positive control in the experiments.” for “immunoassay from R & D System, Minneapolis, USA.”"}, "IL-1β": {"test_system": "IL-1β", "assay": "LPS induced IL-1β in hPBMC", "assay_type": "cell-based", "details": "Homo sapiens, LPS 1 μg/mL 24 hours", "description": "as §1, with “PBMC” for “THP-1”, “TNF-α, IL-6 and IL-1β” for “TNF-α”, “immunoassay. Dexamethasone was used as a positive control in the experiments.” for “immunoassay from R & D System, Minneapolis, USA.”"}, "T cell proliferation": {"test_system": "T cell proliferation", "assay": "Inhibition of T cell proliferation", "assay_type": "cell-based, mice", "description": "SJL mice were immunized with keyhole limpet hemocyanin (KLH) in complete Freund's adjuvant (CFA). 12 days later regional lymph nodes were isolated and a proliferative response to KLH in the presence or absence of drug was performed (in presence of 3H thymidine). The results are expressed at Stimulation index (CPM+antigen/CPM no antigen). Similarly, mitogen induced concanavalin A (CON-A), IL-4, IL-2 induced T cell proliferation was measured in presence of compounds are shown in Table VI."}, "IL-12": {"test_system": "IL-12", "assay": "IL-12 secretion following LPS stimulation of mouse spleenic macrophages", "assay_type": "cell-based", "details": "mouse splenic macrophages stimulated with LPS for 72 hrs", "source_text": "Compound 6 of this class inhibited IL-12 production in mouse splenic macrophages stimulated with LPS for 72 hrs."}, "[9]": {"details": "hPBMC, 10 μM, LPS 1 μg/mL 24 hours, * average of two experiments"}},
  "note": "Where a name gives a salt, the structure may show the parent alone.",
  "data": [
    {"smiles": "Cl.NC(Cc1ccc(Oc2ccc(C(=O)NO)cc2)cc1)C(=O)O", "note": "(stereo not shown) [Compound 9, 2-amino-3-[4-(4-hydroxycarbamoyl-phenoxy)-phenyl]-propionic acid hydrochloric acid salt]", "values": [
      {"measurement": "arthritic scores", "setting": "[1]", "result": "significantly improved the arthritic scores"},
      {"measurement": "inhibition at 10 µM", "setting": "TNF-α [2]", "result": 20, "unit": "%"},
      {"measurement": "inhibition at 50 mg/kg", "setting": "TNF-α [3]; oral 50 mg/kg body weight one hour before LPS", "result": 45, "unit": "%"}
    ]},
    {"smiles": "Cc1ccc(S(=O)(=O)NC(Cc2ccc(Oc3ccc(C(=O)NO)cc3)cc2)C(=O)N(C)C)cc1", "note": "(stereo not shown) [Compound 14, 4-{4-[2-Dimethylcarbamoyl-2-(toluene-4-sulfonylamino)-ethyl]-phenoxy}-N-hydroxy-benzamide]", "values": [
      {"measurement": "inhibition at 10 µM", "setting": "TNF-α [4]; [9]", "result": 22, "unit": "%"}
    ]},
    {"smiles": "CC(C)OC(=O)C(N)Cc1ccc(Oc2ccc(C(=O)O)cc2)cc1", "note": "(stereo not shown) [Compound 15, 4-[4-(2-Amino-2-isopropoxycarbonylethyl)-phenoxy]-benzoicacid]", "values": [
      {"measurement": "inhibition at 10 µM", "setting": "TNF-α [4]; [9]", "result": 40.1, "unit": "%"}
    ]},
    {"smiles": "CC(C)OC(=O)C(N)Cc1ccc(Oc2ccc(C(=O)NO)cc2)cc1", "note": "(stereo not shown) [Compound 16, 2-Amino-3-[4-(4-hydroxycarbamoylphenoxy)-phenyl]-propionic acid isopropyl ester]", "values": [
      {"measurement": "inhibition at 10 µM", "setting": "TNF-α [4]; [9]", "result": 69.2, "unit": "%"},
      {"measurement": "inflammation induced by carrageenan (paw volume)", "setting": "[5]", "result": "substantially lower the inflammation induced by carrageenan"}
    ]},
    {"smiles": "CN(C)C(=O)[C@@H](N)Cc1ccc(Oc2ccc(C(=O)NO)cn2)cc1", "note": "[Compound 21, L-6-[4-(2-amino-2-dimethylcarbamoyl-ethyl)-phenoxy]-N-hydroxy-nicotinamide hydrochloride]", "values": [
      {"measurement": "inhibition at 10 µM", "setting": "TNF-α [4]; [9]", "result": 36.1, "unit": "%"}
    ]},
    {"smiles": "NC(Cc1ccc(Oc2ccc(C(=O)NO)cc2)cc1)C(=O)[O-].[Na+]", "note": "(stereo not shown) [Compound 22, 2-amino-3-[4-(4-hydroxycarbamoyl-phenoxy)-phenyl]-propionic acid sodium salt]", "values": [
      {"measurement": "T cell proliferative response", "setting": "Lymphocyte proliferation", "result": "normal T cell proliferative response"},
      {"measurement": "arthritic scores", "setting": "[1]", "result": "significantly improved the arthritic scores"},
      {"measurement": "inhibition at 10 µM", "setting": "TNF-α [4]; 24 h", "result": 40, "unit": "%"},
      {"measurement": "inhibition of IL-12 (p40)", "setting": "IL-12 (p40)", "result": "prominent inhibition of IL-12"},
      {"measurement": "gamma interferon levels", "setting": "gamma interferon", "result": "decrease in gamma interferon levels"},
      {"measurement": "disease activity index (DAI)", "setting": "[6]", "result": "lowering of disease activity index"}
    ]},
    {"smiles": "C[C@@H]1C[C@H]2[C@@H]3CCC4=CC(=O)C=C[C@]4(C)[C@@]3(F)[C@@H](O)C[C@]2(C)[C@@]1(O)C(=O)CO", "note": "[Dexamethasone, reference compound]", "values": [
      {"measurement": "inhibition at 5 mg/kg", "setting": "IL-6 [7]", "result": 50, "unit": "%"},
      {"measurement": "inhibition at 10 µM", "setting": "IL-6 [8]", "result": 14, "unit": "%"},
      {"measurement": "inhibition at 10 µM", "setting": "TNF-α [4]; [9]", "result": 42, "unit": "%"},
      {"measurement": "inhibition at 10 µM", "setting": "TNF-α [2]", "result": 70, "unit": "%"},
      {"measurement": "inhibition at 5 mg/kg", "setting": "TNF-α [3]; oral 5 mg/kg bw one hour before LPS", "result": 70, "unit": "%"},
      {"measurement": "inhibition at 10 µM", "setting": "IL-1β", "result": 26, "unit": "%"}
    ]},
    {"smiles": "CS(=O)(=O)c1ccc(C2=C(c3ccccc3)C(=O)OC2)cc1", "note": "[rofecoxib, reference compound]", "values": [
      {"measurement": "effect on T cells (proliferation)", "setting": "T cell proliferation", "result": "did not show any effect on T cells"},
      {"measurement": "IL-12 production", "setting": "IL-12", "result": "no effect was observed"}
    ]}
  ]
}
